Reference: US10813920B2, “Drug for treating corneal endothelium by promoting cell proliferation or inhibiting cell damage” (THE DOSHISHA, priority 2013, dated 2020)

Assays:
[1] = test system: human corneal endothelial cells; experiment: BrdU uptake ELISA in cultured human corneal endothelial cells (Example 2); type: cell-based; settings: ELISA after 3 days; 1, 3, 10, 30 μM; relative to control
Protocol: *The amount of IL-6 expression of human corneal endothelial cells was quantified by RT-PCR by the following method. Human corneal endothelial cells (n=3, passage 5) were cultured for 20 days in the presence of 10 μM of SB203580, and then RNA was extracted with RneasyMini (QIAGEN). 277 ng of total RNA was reverse-transcribed with RevertraAce (Toyobo) and cDNA synthesized into a template to perform PCR. 10 μl of PCR solution containing 1 μl of reaction mixture from single strand cDNA synthesis was heated for 1 minute at an initial temperature of 94° C. and then 1 minute at 94° C., 30 seconds at 54° C., and 30 seconds at 72° C. The temperature cycle was repeated 30 times. IL-6 sense primer: […] (SEQ ID NO: 1) IL-6 antisense primer: […] (SEQ ID NO: 2) *ELISA (BrdU): Cells were seeded on a 96-well culture plate at a seeding density of 5000 cells/well. […] The reaction was stopped with 1M sulfuric acid to measure the absorbance at 450 nm with a plate reader. […] The amount of IL-6 protein in a culture supernatant collected after 7 days was quantified in accordance with the manual of DuoSetELISA human IL-6 (R & D Cat # DY206). […] The plate was washed and the bound peroxidase was detected with a substrate solution (R&D Systems Cat # DY999). The coloring reaction was stopped with 2M of H2SO4 to read out the plate with Multimax (Promega) at […]. […]

corneal endothelium = experiment: Partial rabbit corneal endothelial disorder model, eye drops; type: in vivo
Protocol: A stainless steel chip with a diameter of 7 mm was immersed in liquid nitrogen and cooled. The chip was contacted with the center portion of a corneal of a Japanese white rabbit (obtained from Oriental Bioservice) for 15 seconds under general anesthesia, such that corneal endothelial cells at the center portion partially fell off. Eye drops of SB203580 adjusted to 10 mM was then administered 4 times a day for 2 days at 50 μl per dose. As a control, eye drops of a base agent were administered in an eye in which a partial corneal endothelial disorder was similarly created, and a picture was taken. Further, the rabbit was euthanized and the corneal was extracted. The wounded area of the corneal endothelium was stained with alizarin red S (Nacalai Tesque, CI-58005) and observed. Furthermore, immunostaining was applied to corneal tissue with the cell proliferation marker Ki67. The same methodology as the aforementioned Examples or the like was used for immunostaining.

[2] = test system: human corneal endothelial cells; experiment: UV-induced cell death, live cell count; type: cell-based; settings: UV 100 J/m^2; 10 μM; 12 hours after UV irradiation; vs UV only
Protocol: In order to study the effect of a p38 MAP kinase signal inhibition on cell death, cultured human corneal endothelial cells were stimulated with ultraviolet rays (UV) of 100 J/m^2 to induce cell death to study the effect of SB203580 (used at 10 μM). The number of cells was counted for the study.

[3] = cited from earlier work

## C[S+]([O-])c1ccc(-c2nc(-c3ccncc3)c(-c3ccc(F)cc3)[nH]2)cc1 (stereo not shown) [SB203580, 4-(4-fluorophenyl)-2-(4-methylsulfinylphenyl)-5-(4-pyridyl)-1H-imidazole]
[1]
  BrdU uptake: significantly promoted
Corneal endothelium; 10 mM eye drops 4 times a day for 2 days, 50 μl per dose, 6 eyes each, vs control, p<0.01
  wound area of corneal endothelium (alizarin staining): contracted significantly more
Corneal endothelium; 10 mM eye drops 4 times a day for 2 days, 50 μl per dose, day 2
  transparency of cornea (anterior eye section picture): recovered quickly
Corneal endothelium; 10 mM eye drops, vs control
  Expression of Ki67 in corneal tissue (ratio of Ki67 positive cells): significantly more cells
[2]
  number of live cells after UV irradiation (percentage to control): significantly increases
[3]; methanol
  solubility in methanol: soluble
[3]; water
  solubility in water (pharmacopoeia class): difficult to dissolve (100 mL or greater and less than 1000 mL)
